Details: Liquid, Gas chromatography

Cc1coc2c1CC[C@@H](C)C2 [(R)-menthofuran]
Details | vapor or sublimation pressure [kPa]
298.15 K | 0.036
374.3 K | 2.93
380 K | 3.76
400 K | 8.37
420 K | 17.06
482.4 K | 101.23

Source: the NIST ThermoML archive (doi:10.1016/j.jct.2016.03.020)
